Experimental data reported in US10039816B2, “Siderophore-based immunization against gram-negative bacteria” (Massachusetts Institute of Technology, priority 2014, dated 2018).

Experiments:
Lipocalin-2 (LCN2) = Lipocalin-2 (LCN2) (Homo sapiens, UniProt P80188); details: e.g., sub-nanomolar or low-nanomolar for ferric enterobactin; cited from earlier work
S. Typhimurium = assay type: in vivo, Salmonella enterica serovar Typhimurium; details: for weight loss: C57BL/6 mice, 4 days after infection with 1×10^9 CFU S. Typhimurium, P=0.05
intestinal microbiota = test: Microbiota analysis (16S rDNA, Illumina MiSeq) of colon content of immunized mice; assay type: in vivo; details: for Lactobacillus spp. fraction of the microbiota: immunized, infected mice, day 4; for S. Typhimurium fraction of the intestinal microbes: mice infected with S. Typhimurium for 4 days
[1] = tested on: pro-inflammatory cytokines (IL-17, IL-22), Lcn2; assay type: in vivo; details: infected vs uninfected mice
enterobactin (Ent) = test: ELISA for fecal anti-enterobactin IgA in immunized mice; assay type: in vivo, C57BL/6 mice; details: 14-21 days post-immunization, persisted up to 51 days post-immunization
salmochelin (Glu-Ent) = test: ELISA/dot blot for fecal anti-salmochelin IgA in immunized mice; assay type: in vivo, C57BL/6 mice; details: day 21 post-immunization
Ent = assay type: in vivo; details: Peyer's patch cells, day 21 post-immunization; not in mock-immunized mice
Glu-Ent = assay type: in vivo; details: Peyer's patch cells, day 21 post-immunization; not in mock-immunized mice
[2] = intranasal, first immunization and boost 14 days later; monitored up to 51 days; no sign of disease
[3] = coupling reaction conditions
[4] = responders, 96 h after infection

Sequence of Lipocalin-2 (LCN2) (P80188 21-198, species assumed): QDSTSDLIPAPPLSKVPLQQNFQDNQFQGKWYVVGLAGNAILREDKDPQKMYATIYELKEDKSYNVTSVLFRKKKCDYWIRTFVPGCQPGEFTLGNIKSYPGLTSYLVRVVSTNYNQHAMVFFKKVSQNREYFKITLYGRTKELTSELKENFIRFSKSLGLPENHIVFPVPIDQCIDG

salmochelins
capture by LCN2 (Lipocalin-2 (LCN2)): cannot capture

Cholera toxin B subunit [CTB, reference compound]
weight loss (S. Typhimurium): ~10%
Lactobacillus spp. fraction of the microbiota (intestinal microbiota): ~19%
S. Typhimurium fraction of the intestinal microbes (intestinal microbiota): ca. 32%
expression of pro-inflammatory cytokines (IL-17, IL-22) and Lcn2 in response to infection [1]: similarly upregulated

CTB-Ent
weight loss (S. Typhimurium): ~6%
bacterial burden of S. Typhimurium in the colon content (S. Typhimurium; in vivo): lower bacterial burden
Salmonella burden, Peyer's patches (S. Typhimurium; [4]): lower Salmonella burden
Salmonella burden, spleen (S. Typhimurium; [4]): lower Salmonella burden
Salmonella burden, terminal ileum (S. Typhimurium; [4]): lower Salmonella burden
specific anti-Ent IgA antibodies in feces (ELISA) (enterobactin (Ent)): detected
IgA binding to Glu-Ent (di-glucosylated form) in fecal samples (salmochelin (Glu-Ent)): detected
spots representing Ent-antibody complexes (ELISPOT) (Ent): detected
spots representing Glu-Ent-antibody complexes (ELISPOT) (Glu-Ent): detected
Lactobacillus spp. fraction of the microbiota (intestinal microbiota): ~60%
S. Typhimurium fraction of the intestinal microbes (intestinal microbiota): 7%
level of Escherichia spp. (intestinal microbiota; vs low level in mock-immunized mice): further reduced
tolerability of the two immunizations [2]: well tolerated
expression of pro-inflammatory cytokines (IL-17, IL-22) and Lcn2 in response to infection [1]: similarly upregulated

O=C(N[C@H]1COC(=O)[C@@H](NC(=O)c2cccc(O)c2O)COC(=O)[C@@H](NC(=O)c2cccc(O)c2O)COC1=O)c1cccc(O)c1O [Enterobactin, enterobactin]
hydrolysis of the trilactone ring in aqueous solution [3]: slowly undergoes hydrolysis

O=C(N[C@H]1COC(=O)[C@@H](NC(=O)c2cccc([O-])c2[O-])COC(=O)[C@@H](NC(=O)c2cccc([O-])c2[O-])COC1=O)c1cccc([O-])c1[O-].[Fe+3] [ferric enterobactin]
capture by LCN2 (Lipocalin-2 (LCN2)): high affinity
